Data reported in patent US20260226084A1, “DUAL RAF AND TUBULIN INHIBITORS AND METHODS OF USE THEREOF” (Deciphera Pharmaceuticals, LLC, priority 2023, published 2026).
Where two headings read alike, the source gives them in different places.

Tests used:
[1] = target: T1, C-Raf kinase (SEQ ID NO: 2) (Homo sapiens, UniProt P04049, Y340D/Y341D); experiment: Biochemical Assay for C-Raf (coupled pyruvate kinase/lactate dehydrogenase assay)
T1 construct: C-Raf residues 306-end; Y340D, Y341D with; GST (N); purchased Sigma
T1 sequence (P04049 307-648 Y340D/Y341D): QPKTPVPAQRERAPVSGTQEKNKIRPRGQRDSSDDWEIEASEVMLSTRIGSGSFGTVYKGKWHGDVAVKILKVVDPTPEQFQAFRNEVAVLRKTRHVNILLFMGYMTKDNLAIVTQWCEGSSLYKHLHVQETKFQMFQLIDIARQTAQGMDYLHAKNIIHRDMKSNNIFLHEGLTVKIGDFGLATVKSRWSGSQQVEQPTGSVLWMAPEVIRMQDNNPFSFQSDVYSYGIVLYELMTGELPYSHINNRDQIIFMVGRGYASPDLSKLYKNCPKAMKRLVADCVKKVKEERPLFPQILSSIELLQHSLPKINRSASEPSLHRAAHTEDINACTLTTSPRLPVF

MiaPaca-2 cells = experiment: MiaPaca-2 Cell Proliferation Assay; type: cell-based; conditions: Homo sapiens
Summary of the method: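 Viability was read as resazurin fluorescence (540 nm excitation, 600 nm emission) after 5–6 h with dye. Compounds were tested as serial dilutions in triplicate, with IC50 derived from the dose–response.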

HCT-116 cells = experiment: HCT-116 Cell Proliferation Assay; type: cell-based; conditions: Homo sapiens
Summary of the method: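 IC50 values come from resazurin fluorescence (540 nm excitation, 600 nm emission) added for 4 to 5 h after compound treatment. Treatment: serially diluted compound in triplicate on 375 HCT-116 cells per well in complete McCoy's 5A/10% FBS, 67 to 72 hours, 37 °C, 5% CO2.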

HPAF-II cells = experiment: HPAF-II Cell Proliferation Assay; type: cell-based; conditions: Homo sapiens, HPAF-II
Summary of the method: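 Viability read-out was resazurin fluorescence (540 nm excitation, 600 nm emission), developed 18–24 h after a 115–120 h compound exposure of 750 HPAF-II cells per well in MEM/10% FBS at 37 °C. Compound was tested as a serial dilution in triplicate, and IC50 values were calculated.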

Pa16c cells = experiment: Pa16c Cell Proliferation Assay; type: cell-based; conditions: Table 2, read-out: Inhibition of cell proliferation in Pa16c (IC50 class)
Summary of the method: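 Proliferation read-out: resazurin fluorescence (540 nm excitation, 600 nm emission) after an extra 18 to 24 h. Before that, compound dilution series (triplicate) stayed on 750 Pa16c cells/well in complete DMEM/10% FBS for 67 to 72 h at 37° C. IC50 values derived from the curves.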

[2] = 1 mM ATP, read-out: CRAF (inhibition of biochemical activity, IC50)
[3] = Table 3, read-out: CRAF (IC50 class)
[4] = MIA PaCa-2, MiaPaca-2 cells, Table 2, read-out: Inhibition of cell proliferation in MiaPaca-2 (IC50 class)
[5] = MIA PaCa-2, Table 3, read-out: MiaPaca-2 (IC50 class)
[6] = HCT-116, HCT-116 cells, Table 2, read-out: Inhibition of cell proliferation in HCT-116 (IC50 class)
[7] = HCT-116, Table 3, read-out: HCT-116 (IC50 class)
[8] = HPAF-II cells, Table 2, read-out: Inhibition of cell proliferation in HPAF-II (IC50 class)
[9] = Table 3, read-out: HPAF-II (IC50 class)

| SMILES | IC50 [1, 2] | IC50 [1, 3] | IC50 (MiaPaca-2 cells; [4]) | IC50 (MiaPaca-2 cells; [5]) | IC50 (HCT-116 cells; [6]) | IC50 (HCT-116 cells; [7]) | IC50 (HPAF-II cells; [8]) | IC50 (HPAF-II cells; [9]) | IC50 (Pa16c cells) |
| --- | --- | --- | --- | --- | --- | --- | --- | --- | --- |
| Cc1ccc(NC(=O)c2cc(C(F)(F)F)cnn2)cc1-c1ccnc(-c2ccnc(NC(=O)C3CC3)c2)c1 [Example 67] | < 100 nM | < 100 nM | < 100 nM | < 100 nM | < 100 nM | < 100 nM | < 100 nM | < 100 nM | < 100 nM |
| Cc1ccc(NC(=O)c2cnc(C(F)(F)F)nc2)cc1-c1ccnc(-c2ccnc(NC(=O)C3CC3)c2)c1 [Example 17] | < 100 nM | < 100 nM | 100 to 500 nM | 100 to 500 nM | 100 to 500 nM | 100 to 500 nM | < 100 nM | < 100 nM | < 100 nM |
| Cc1ccc(NC(=O)c2cc(C3CC3)cnn2)cc1-c1ccnc(-c2ccnc(NC(=O)C3CC3)c2)c1 [Example 43] | < 100 nM | < 100 nM | < 100 nM | < 100 nM | < 100 nM | < 100 nM | 100 to 500 nM | 100 to 500 nM | < 100 nM |
| Cc1ccc(NC(=O)c2cc(C(C)(F)F)cnn2)cc1-c1ccnc(-c2ccnc(NC(=O)C3CC3)c2)c1 [Example 57] | < 100 nM | < 100 nM | < 100 nM | < 100 nM | < 100 nM | < 100 nM | < 100 nM | < 100 nM | 100 to 500 nM |
| Cc1ccc(NC(=O)c2cc(C#N)cnn2)cc1-c1ccnc(-c2ccnc(NC(=O)C3CC3)c2)c1 [Example 96, 5-cyano-N-(3-(2′-(cyclopropanecarboxamido)-[2,4′-bipyridin]-4-yl)-4-methylphenyl)pyridazine-3-carboxamide] | < 100 nM | < 100 nM | < 100 nM | < 100 nM | 100 to 500 nM | 100 to 500 nM | 100 to 500 nM | 100 to 500 nM | 1000 to 10000 nM |
